Results taken from ChEMBL document CHEMBL1153772 (J Nat Prod, 2009).

Columns and labels:
Format in all cases: functional
[1] = system: NCI-H226; test: Cytotoxicity against human NCI-H226 cells assessed cell growth
[2] = system: NCI-H23; test: Cytotoxicity against human NCI-H23 cells assessed cell growth
[3] = system: NCI-H322M; test: Cytotoxicity against human NCI-H322M cells assessed cell growth
[4] = system: NCI-H460; test: Cytotoxicity against human NCI-H460 cells assessed cell growth
[5] = system: NCI-H522; test: Cytotoxicity against human NCI-H522 cells assessed cell growth
[6] = system: COLO 205; test: Cytotoxicity against human COLO205 cells assessed cell growth
[7] = system: HCC 2998; test: Cytotoxicity against human HCC2998 cells assessed cell growth
[8] = system: HCT-116; test: Cytotoxicity against human HCT116 cells assessed cell growth
[9] = system: HCT-15; test: Cytotoxicity against human HCT15 cells assessed cell growth
[10] = system: HT-29; test: Cytotoxicity against human HT-29 cells assessed cell growth
[11] = system: KM12; test: Cytotoxicity against human KM12 cells assessed cell growth
[12] = system: SW-620; test: Cytotoxicity against human SW620 cells assessed cell growth
[13] = system: SF-268; test: Cytotoxicity against human SF268 cells assessed cell growth
[14] = system: SF-295; test: Cytotoxicity against human SF295 cells assessed cell growth
[15] = system: SF-539; test: Cytotoxicity against human SF539 cells assessed cell growth
[16] = system: SNB-19; test: Cytotoxicity against human SNB19 cells assessed cell growth
[17] = system: SNB-75; test: Cytotoxicity against human SNB75 cells assessed cell growth
[18] = system: U-251; test: Cytotoxicity against human U251 cells assessed cell growth
[19] = system: LOX IMVI; test: Cytotoxicity against human LOXIMVI cells assessed cell growth
[20] = system: M14; test: Cytotoxicity against human M14 cells assessed cell growth
[21] = system: Malme-3M; test: Cytotoxicity against human MALME-3M cells assessed cell growth
[22] = system: MDA-MB-435; test: Cytotoxicity against human MDA-MB-435 cells assessed cell growth
[23] = system: SK-MEL-2; test: Cytotoxicity against human SK-MEL-2 cells assessed cell growth
[24] = system: SK-MEL-28; test: Cytotoxicity against human SK-MEL-28 cells assessed cell growth
[25] = system: SK-MEL-5; test: Cytotoxicity against human SK-MEL-5 cells assessed cell growth
[26] = system: UACC-62; test: Cytotoxicity against human UACC62 cells assessed cell growth
[27] = system: IGROV-1; test: Cytotoxicity against human IGROV1 cells assessed cell growth
[28] = system: OVCAR-3; test: Cytotoxicity against human OVCAR-3 cells assessed cell growth
[29] = system: OVCAR-4; test: Cytotoxicity against human OVCAR4 cells assessed cell growth
[30] = system: OVCAR-5; test: Cytotoxicity against human OVCAR5 cells assessed cell growth
[31] = system: SK-OV-3; test: Cytotoxicity against human SKOV3 cells assessed cell growth
[32] = system: NCI/ADR-RES; test: Cytotoxicity against human NCI/ADR-RES cells assessed cell growth
[33] = system: 786-0; test: Cytotoxicity against human 786-0 cells assessed cell growth
[34] = system: A498; test: Cytotoxicity against human A498 cells assessed cell growth
[35] = system: ACHN; test: Cytotoxicity against human ACHN cells assessed cell growth
[36] = system: SN12C; test: Cytotoxicity against human SN12C cells assessed cell growth
[37] = system: TK-10; test: Cytotoxicity against human TK10 cells assessed cell growth
[38] = system: UO-31; test: Cytotoxicity against human UO31 cells assessed cell growth
[39] = system: DU-145; test: Cytotoxicity against human DU145 cells assessed cell growth
[40] = system: MCF7; test: Cytotoxicity against human MCF7 cells assessed cell growth
[41] = system: MDA-MB-231; test: Cytotoxicity against human MDA-MB-231 cells assessed cell growth
[42] = Cytotoxicity against human Hs 578T cells assessed cell growth
[43] = system: BT-549; test: Cytotoxicity against human BT549 cells assessed cell growth
[44] = system: T47D; test: Cytotoxicity against human T47D cells assessed cell growth
[45] = system: MDA-MB-468; test: Cytotoxicity against human MDA-MB-468 cells assessed cell growth

CC(=O)N(C)CCc1cc(Br)c(OCCCNc2ncn(C)c3ncnc2-3)c(Br)c1 [APHROCALLISTIN]
Activity [1]: 44.72% | Activity [2]: 42.18% | Activity [3]: 76.48% | Activity [4]: 60.08% | Activity [5]: 36.6% | Activity [6]: 104.32% | Activity [7]: 65.57% | Activity [8]: 28.57% | Activity [9]: 99.13% | Activity [10]: 88.11% | Activity [11]: 88.97% | Activity [12]: 89.87% | Activity [13]: 97.87% | Activity [14]: 50.01% | Activity [15]: 80.09% | Activity [16]: 71.64% | Activity [17]: 81.17% | Activity [18]: 79.39% | Activity [19]: 55.23% | Activity [20]: 73.49% | Activity [21]: 76.4% | Activity [22]: 62.57% | Activity [23]: 71.47% | Activity [24]: 84.58% | Activity [25]: 20% | Activity [26]: 79.32% | Activity [27]: 64.84% | Activity [28]: 87.3% | Activity [29]: 33.32% | Activity [30]: 88.65% | Activity [31]: 94.44% | Activity [32]: 72.89% | Activity [33]: 70.65% | Activity [34]: 71.71% | Activity [35]: 69.23% | Activity [36]: 92.68% | Activity [37]: 89.47% | Activity [38]: 79.45% | Activity [39]: 102.31% | Activity [40]: 39.83% | Activity [41]: 74.94% | Activity [42]: 52.48% | Activity [43]: 56.49% | Activity [44]: 26.91% | Activity [45]: 25.48%
